Organism: Rattus norvegicus
Format: toxicity, organism-based, Sprague-Dawley
Conditions: in vivo, po, 24 h, route oral GAVAGE, time 1 day, […]; for ABSOLUTE BASOPHIL / ABSOLUTE EOSINOPHIL / ABSOLUTE LYMPHOCYTE / ABSOLUTE MONOCYTE / BASOPHIL / EOSINOPHIL / ERYTHROCYTE COUNT / HEMATOCRIT / HEMOGLOBIN / LEUKOCYTE COUNT / LYMPHOCYTE / MEAN CORPUSCULAR HEMOGLOBIN / MEAN CORPUSCULAR HEMOGLOBIN CONCENTRATION / MEAN CORPUSCULAR VOLUME / MONOCYTE / NEUTROPHIL / PLATELET COUNT: tissue Blood; for ALANINE AMINOTRANSFERASE / ALBUMIN / ALKALINE PHOSPHATASE / ASPARTATE AMINOTRANSFERASE / BLOOD UREA NITROGEN / CARBON DIOXIDE / CHLORIDE / CHOLESTEROL / CREATINE PHOSPHOKINASE / CREATININE / GLUCOSE / LACTATE DEHYDROGENASE / LIPASE / PHOSPHORUS / POTASSIUM / SODIUM / TOTAL BILIRUBIN / TOTAL PROTEIN / URIC ACID: tissue Plasma
[1] = 0 mg/kg, vehicle control, dose level Control

Description: DrugMatrix - Regimen: Single

Molecule `C=CCN` [ALLYLAMINE] has an ABSOLUTE BASOPHIL [1] of 46.7 cells/µL, an ABSOLUTE EOSINOPHIL [1] of 130 cells/µL and an ABSOLUTE LYMPHOCYTE [1] of 8720 cells/µL. It also gave an ABSOLUTE MONOCYTE [1] of 140 cells/µL, a BASOPHIL [1] of 0.43% and an EOSINOPHIL [1] of 1.33%. The “ERYTHROCYTE COUNT” value [1] was 6.45 x10E6/uL, the HEMATOCRIT [1] was 42.2% and the HEMOGLOBIN [1] was 13.33 G/DL. The “LEUKOCYTE COUNT” value [1] was 10.59 x10E3/uL, the LYMPHOCYTE [1] was 82.13% and the “MEAN CORPUSCULAR HEMOGLOBIN” value [1] was 20.67 pg. The “MEAN CORPUSCULAR HEMOGLOBIN CONCENTRATION” value [1] was 31.6 G/DL, the “MEAN CORPUSCULAR VOLUME” value [1] was 65.4 fL and the MONOCYTE [1] was 1.37%. The NEUTROPHIL [1] was 14.3%, the “PLATELET COUNT” value [1] was 1048.67 x10E3/uL and the “ALANINE AMINOTRANSFERASE” value [1] was 44 u/L. For the same molecule, the ALBUMIN [1] was 3.93 G/DL, the “ALKALINE PHOSPHATASE” value [1] was 551.33 u/L and the “ASPARTATE AMINOTRANSFERASE” value [1] was 97 u/L. For the same molecule, the “BLOOD UREA NITROGEN” value [1] was 13.5 mg/dL, the “CARBON DIOXIDE” value [1] was 37.33 mmol/L and the CHLORIDE [1] was 102.33 MEQ/L. For the same molecule, the CHOLESTEROL [1] was 83 mg/dL, the “CREATINE PHOSPHOKINASE” value [1] was 365.33 u/L and the CREATININE [1] was 0.4 mg/dL. The GLUCOSE [1] was 189 mg/dL, the “LACTATE DEHYDROGENASE” value [1] was 170.33 u/L and the LIPASE [1] was 10.67 u/L. It also gave a PHOSPHORUS [1] of 11.53 mg/dL, a POTASSIUM [1] of 5.63 MEQ/L and an SODIUM [1] of 144.33 MEQ/L. For the same molecule, the “TOTAL BILIRUBIN” value [1] was 0.4 mg/dL, the “TOTAL PROTEIN” value [1] was 6.27 G/DL and the “URIC ACID” value [1] was 0.87 mg/dL. It also gave an ABSOLUTE BASOPHIL (40 mg/kg, dose level Low) of 26.7 cells/µL, an ABSOLUTE EOSINOPHIL (40 mg/kg, dose level Low) of 160 cells/µL and an ABSOLUTE LYMPHOCYTE (40 mg/kg, dose level Low) of 6420 cells/µL. The ABSOLUTE MONOCYTE (40 mg/kg, dose level Low) was 190 cells/µL, the BASOPHIL (40 mg/kg, dose level Low) was 0.3% and the EOSINOPHIL (40 mg/kg, dose level Low) was 1.9%. For the same molecule, the “ERYTHROCYTE COUNT” value (40 mg/kg, dose level Low) was 7.01 x10E6/uL, the HEMATOCRIT (40 mg/kg, dose level Low) was 45.2% and the HEMOGLOBIN (40 mg/kg, dose level Low) was 14.3 G/DL. For the same molecule, the “LEUKOCYTE COUNT” value (40 mg/kg, dose level Low) was 8.6 x10E3/uL, the LYMPHOCYTE (40 mg/kg, dose level Low) was 74.17% and the “MEAN CORPUSCULAR HEMOGLOBIN” value (40 mg/kg, dose level Low) was 20.43 pg. For the same molecule, the “MEAN CORPUSCULAR HEMOGLOBIN CONCENTRATION” value (40 mg/kg, dose level Low) was 31.67 G/DL, the “MEAN CORPUSCULAR VOLUME” value (40 mg/kg, dose level Low) was 64.6 fL and the MONOCYTE (40 mg/kg, dose level Low) was 2.23%. The NEUTROPHIL (40 mg/kg, dose level Low) was 20.97%, the “PLATELET COUNT” value (40 mg/kg, dose level Low) was 1314 x10E3/uL and the “ALANINE AMINOTRANSFERASE” value (40 mg/kg, dose level Low) was 38 u/L. The ALBUMIN (40 mg/kg, dose level Low) was 3.9 G/DL, the “ALKALINE PHOSPHATASE” value (40 mg/kg, dose level Low) was 499 u/L and the “ASPARTATE AMINOTRANSFERASE” value (40 mg/kg, dose level Low) was 72.33 u/L. For the same molecule, the “BLOOD UREA NITROGEN” value (40 mg/kg, dose level Low) was 10 mg/dL, the “CARBON DIOXIDE” value (40 mg/kg, dose level Low) was 38.67 mmol/L and the CHLORIDE (40 mg/kg, dose level Low) was 104 MEQ/L. The CHOLESTEROL (40 mg/kg, dose level Low) was 72.67 mg/dL, the “CREATINE PHOSPHOKINASE” value (40 mg/kg, dose level Low) was 242.67 u/L and the CREATININE (40 mg/kg, dose level Low) was 0.47 mg/dL. The GLUCOSE (40 mg/kg, dose level Low) was 171.33 mg/dL, the “LACTATE DEHYDROGENASE” value (40 mg/kg, dose level Low) was 92.33 u/L and the LIPASE (40 mg/kg, dose level Low) was 15.33 u/L. The PHOSPHORUS (40 mg/kg, dose level Low) was 11.83 mg/dL, the POTASSIUM (40 mg/kg, dose level Low) was 5.73 MEQ/L and the SODIUM (40 mg/kg, dose level Low) was 145 MEQ/L. For the same molecule, the “TOTAL BILIRUBIN” value (40 mg/kg, dose level Low) was 0.3 mg/dL, the “TOTAL PROTEIN” value (40 mg/kg, dose level Low) was 6.27 G/DL and the “URIC ACID” value (40 mg/kg, dose level Low) was 1.3 mg/dL.
